The source of these data is paper PMC5457661, “Dysregulation of lysophosphatidic acids in multiple sclerosis and autoimmune encephalomyelitis” (Acta Neuropathologica Communications, 2017).

Entries after “also recorded” stand apart in the source; their conditions may differ. Like-named read-outs stand apart in the source and are kept apart here.

The target of data set [1] is T1, LPAR1, 2, 3 or 4 (Homo sapiens, UniProt Q9HBW0).
T1 construct: expressed in transfected cells; host or cells: COS-1
Kind of data set: LPA receptor activation panel in COS cells with heterologous expression of LPAR1, 2, 3 or 4 plus Gα15, mock controls. Format: cell-based. The conditions noted are these: COS cells with heterologous expression of LPAR1, 2, 3 or 4. How it is done: (§1) To study the activation profile of heterologously expressed LPA receptors, COS-1 cells were seeded in 96-well plates at a density of 50.000 cells/well. Next day, they were co-transfected with plasmids containing cDNA for a calcium-sensitive bioluminescent fusion protein between aequorin and GFP [3] and plasmids containing the indicated receptor cDNA or control (empty vector, mock) together with the promiscuous Gα15 [42] at a concentration of 50 ng/well by using FuGENE 6 reagent (Promega) according to manufacturer’s instructions. Forty-eight hours later, cells were loaded with 5 μM coelenterazine h (Invitrogen) in HBSS buffer containing 1.8 mM CaCl2 and 10 mM glucose for 2 h at 37 °C. Measurements were performed by using a luminometric plate reader (Flexstation 3) for 100 s following ligand stimulation. The area under each calcium transient was calculated by using SoftMaxPro software and expressed as area under the curve (AUC). The following lipids were used for stimulation: 1-Palmitoyl-LPA (LPA16:0), 1-oleoyl-LPA (LPA18:1), 1-stearoyl-LPA (LPA18:0), 1-lineoyl-LPA (LPA18:2), 1-arachidonoyl-LPA (LPA20:4). LPA16:0 and 18:1 were from Cayman, the others from AvantiPolar Lipids.

A short description of data set [2]: Plasma concentration time courses and basic pharmacokinetics of the LPAR2 agonist (LC-MS/MS). Format: in vivo, SJL/J mice. How it is done: (§2) Female SJL/J mice (Envigo, Germany), aged 10–12 weeks at immunization were used for study of relapsing-remitting EAE and female TCR^1640 mice for spontaneous RR-EAE [45]. Female C57BL6/J mice and LPAR2^−/− mice and LPAR2^+/+ littermates were used for the study of primary progressive EAE. LPAR2^−/− mice have a mixed C57BL6/J x Sv129 background with about 25% Sv129. Mice were housed at 3–5 mice per cage at constant room temperature (21 ± 1 °C) under a regular 12 h light/dark schedule. Food and water were available ad libitum. Animals were treated orally via the drinking water with FTY720 (fingolimod) at 0.5 mg/kg/d starting 3 days after immunization for preventive treatment. Monoclonal anti-Itga4 antibody treatment (natalizumab) in SJL/J mice consisted in 3 intraperitoneal injections (1x200 μg, 2x 150 μg) on day 11, 14 and 19. The LPAR2 agonist GRI 977143 was administered perorally in cornflakes soaked with 10% sucrose/10% DMSO in water with 100 μg/mouse/d of the drug starting 3d after immunization. Control animals received the respective vehicle. Oral bioavailability (F) of the LPAR2 agonist and basic kinetics were assessed by LC-MS/MS analysis of plasma concentrations. Tmax and Cmax were directly taken from the plasma concentration time courses. AUCs were calculated according to the linear trapezoidal rule. The clearance was calculated as Cl = Dose*F/AUCs and the half-life, t1/2 = ln2/λ, where λ is the terminal decay constant.

Data set [3] has as its system RR-EAE SJL/J mice. Kind of data set: Relapsing-remitting EAE (PLP139-151/CFA/PTX immunization), clinical scores, body weight, spinal cord immunofluorescence. The format is in vivo. As for the experimental part:
as §2
C57BL6/J and LPAR2 mice were immunized according to a standard protocol using the Hooke Kit™ MOG35-55/CFA emulsion PTX (EK-2110, Hooke Labs, St Lawrence, MA), which contains 200 μg myelin oligodendrocyte glycoprotein (MOG) 35–55 emulsified in 200 μl Complete Freund’s Adjuvant (CFA). The emulsion was injected subcutaneously at two sites followed by two intraperitoneal (i.p.) injections of 200 ng pertussis toxin (PTX) in phosphate buffered saline (PBS), the first 1–2 h after MOG35-55, and the second 24 h later. SJL mice were immunized using Hooke Kit™ PLP139-151/CFA emulsion PTX (EK-2120), which contains 200 μg myelin proteolipid protein (PLP) 139–151 in 200 μl CFA (Hooke Labs, US). Injections of the emulsion and PTX were done as described for C57BL6 mice.
EAE scores were assessed daily to evaluate the severity and extent of motor function deficits. Score 0, normal motor functions; score 0.5, distal paralysis of the tail; score 1, complete tail paralysis; score 1.5, mild paresis of one or both hind legs; score 2, severe paresis of hind legs; score 2.5, complete paralysis of one hind leg; score 3, complete paralysis of both hind legs; score 3.5, complete paralysis of hind legs and paresis of one front leg. Serum and tissues were sampled after the second peak, 35–36 days after immunization.
Mice were terminally anaesthetized with isoflurane and cardially perfused with cold 0.9% NaCl, followed by 4% paraformaldehyde (PFA) in 1x PBS for fixation. […]
Tiled images of individual sections were captured with equal filter and acquisition parameters to assure comparability independent of genotype or treatment and subsequently stitched to cover the complete ventral horn of the spinal cord. Iba1+ and CD11b + microglia/macrophages in the gray matter and white matter were quantified using the particle counter plugin of FIJI ImageJ. […] Three or more non-overlapping images of 3 mice were analyzed per group.

Data set [4] concerns the target T2, LPAR2 (Homo sapiens, UniProt Q9HBW0).
T2 construct: plasmids containing the indicated receptor cDNA or control (empty vector, mock); expressed in transfected cells; host or cells: COS-1
Description: LPA receptor activation, aequorin-GFP calcium luminescence in COS-1 cells co-transfected with Gα15. Format: cell-based. As for the experimental part:
as §1

The target of data set [5] is T2, LPAR2. Details: method as in not given. The conditions noted are these: reported value; ref not given; cited from earlier work.
Data set [6] concerns LPAR1, 2, 3 or 4. Description: LPA receptor activation panel in COS cells with heterologous expression of LPAR1, 2, 3 or 4 plus Gα15, mock controls. The format is cell-based, human. The note with it: for LPAR activation (agonist activity): calcium transient AUC, all heterologously expressed LPARs. As for the experimental part:
as §1

Data set [7] deals with T3, LPAR1 (Homo sapiens, UniProt Q92633).
T3 construct: plasmids containing the indicated receptor cDNA or control (empty vector, mock); expressed in transfected cells; host or cells: COS-1
T3 sequence (Q92633 whole entry): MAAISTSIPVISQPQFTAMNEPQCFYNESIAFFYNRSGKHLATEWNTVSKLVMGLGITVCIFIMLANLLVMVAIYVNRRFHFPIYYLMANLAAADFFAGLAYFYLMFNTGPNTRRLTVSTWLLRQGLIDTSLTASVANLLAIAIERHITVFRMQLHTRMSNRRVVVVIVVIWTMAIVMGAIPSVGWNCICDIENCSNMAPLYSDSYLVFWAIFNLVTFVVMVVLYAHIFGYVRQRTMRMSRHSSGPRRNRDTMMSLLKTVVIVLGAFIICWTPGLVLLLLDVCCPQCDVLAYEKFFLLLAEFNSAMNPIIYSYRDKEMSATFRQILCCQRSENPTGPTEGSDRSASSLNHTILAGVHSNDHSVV
Kind of data set: LPA receptor activation, aequorin-GFP calcium luminescence in COS-1 cells co-transfected with Gα15. The format is cell-based. The note with it: compared with other LPAs. How it is done:
as §1

Data set [8] addresses T4, autotaxin (Mus musculus, UniProt Q9R1E6).
T4 construct: from tissue; host or cells: living naïve mice, plasma sampled
Kind of data set: LPA plasma concentration in naïve mice after autotaxin inhibitor. The format is in vivo. The conditions noted are these: i.p. 30 min before plasma sampling. As for the experimental part: Quantitative LPA analysis was performed with liquid chromatography-electrospray ionization-tandem mass spectrometry (LC-ESI-MS/MS) with a hybrid triple quadrupole-ion trap QTrap 5500 mass spectrometer (AB Sciex, Germany) as described without knowledge of clinical data or treatment groups. Briefly, 2 cycles of liquid-liquid extraction of LPAs were done with 1-buthanol after adding the internal standard LPA17:0 (50 μl sample, 20 μl internal standard in 500 μl 1-butanol). The combined organic phases were dried under a gentle stream of nitrogen at 45 °C and subsequently re-dissolved in 200 μl methanol. A C18 column (Mercury 20 x 2 mm, 3 μm, 100 Å) and precolumn were used for chromatographic separation. A linear gradient was employed at a flow rate of 400 μl/min. Mobile phase A was water with ammonium formate 50 mM and formic acid (100:0.2, v/v) and mobile phase B acetonitrile/formic acid (100:0.1, v/v). The mass spectrometer operated in the negative ion mode and used multiple reaction monitoring (MRM). The mass transitions were m/z 409 → 79 (LPA 16:0), m/z 437 → 153 (LPA 18:0), m/z 431 → 79 (LPA 18:3) and m/z 457 → 153 (LPA 20:4) all with a dwell time of 50 ms. The internal standard method was used for quantification with Analyst Software V1.5 (Applied Biosystems, Germany). The calibration curve was linear over the range of 0.1–500 ng/ml and accuracy was >95%.

Data set [9] deals with autotaxin. More on the design: method as in PMID 19215222. The note with it: cited from earlier work.
Data set [10] concerns serum LPAs. Description: Serum LPA concentrations (LC-MS/MS) in medication subgroups of MS patients. The format is in vivo, human. The conditions noted are these: MS patients on prophylactic treatment vs no medication, beta interferon or other drugs. An excerpt:
Human samples and data were available from an observational cross-sectional investigation of 102 multiple sclerosis patients (31 men, 71 women, demographic data Table 1) consecutively recruited from outpatients and inpatients of the Department of Neurology of the Goethe University Hospital Frankfurt, Germany. Data and blood collection was part of the local bio-banking project (Neurological Department of the Goethe University, Frankfurt), adhered to the Declaration of Helsinki and was approved by the Ethics Committees of the Medical Faculty of the Goethe University. Cerebrospinal fluid samples were available from a previous study including 20 MS patients and 10 control patients with other non-inflammatory neurologic diseases. For long-term time course analyses additional 15 patients were recruited and observed up to 3.5 years. […]
(§3) Quantitative LPA analysis was performed with liquid chromatography-electrospray ionization-tandem mass spectrometry (LC-ESI-MS/MS) with a hybrid triple quadrupole-ion trap QTrap 5500 mass spectrometer (AB Sciex, Germany) as described without knowledge of clinical data or treatment groups. […] The internal standard method was used for quantification with Analyst Software V1.5 (Applied Biosystems, Germany). […]

Data set [11] relates to serum LPAs. Description: Serum LPA concentrations (LC-MS/MS) in treated SJL/J EAE mice. Format: in vivo. The conditions noted are these: 35 days after immunization, vs vehicle treated EAE mice. As for the experimental part:
as §2, with “Monoclonal anti-Itga4 antibody treatment (natalizumab) in SJL/J mice consisted in 3 intraperitoneal injections (1x200 μg, 2x 150 μg) on day 11, 14 and 19. The LPAR2 agonist GRI 977143 was administered perorally in cornflakes soaked with 10% sucrose/10% DMSO in water with 100 μg/mouse/d of the drug starting 3d after immunization. Control animals received the respective vehicle.” left out, “Tmax and Cmax were directly taken from the plasma concentration time courses.” left out, “constant. […]” for “constant.”
as §3

Data set [12] addresses T4, autotaxin. Description: Autotaxin lyso-PLD activity ex vivo in primary splenocytes (C17-LPC to C17:0-LPA conversion). Format: cell-based. The conditions noted are these: splenocytes from treated EAE mice. How it is done: The spleens were removed and collected in a sterile wire mesh with 40 μm pore size over a Petri dish half filled with RPMI 1640 media and were gently pressed through the mesh using a 5 ml syringe plunger. The mesh was rinsed over the Petri dish with additional media to remove remaining cells. Disaggregated cells were transferred to a 15 ml Falcon tube and centrifuged at 2,000 rpm for 5 min and washed 2x in RPMI. The cell pellet was resuspended in RPMI, treated with erythrocyte lysis buffer for 10 min at room temperature, followed by centrifugation and resuspension in full medium (RPMI 1640 + 10% FBS + 1% Pen/Strep). Cells were plated in 6-well plates at 3x10^6/2 ml per well. Growth was stimulated with concanavalin A at 1 μg/ml. Cells were kept in an incubator at 37 °C, 95% humidity and 5% CO2 atmosphere and assays were performed after 2d in culture.
The lyso-PLD activity of ATX was measured in primary splenocytes of naïve and EAE mice. Cells were incubated for 2 h in 1.1 ml serum free RPMI 1640 medium and then stimulated for another 2 h with PMA 50 ng/ml and ionomycin 500 ng/ml in serum free medium before the autotaxin substrate, C17-LPC was added (100 μM in 1 μl in DMSO). […] C17-LPC is converted into the unnatural C17:0-LPA, which was analysed in supernatants and crude cell extracts by LC-MS/MS as described above. […]

T2 sequence (Q9HBW0 whole entry): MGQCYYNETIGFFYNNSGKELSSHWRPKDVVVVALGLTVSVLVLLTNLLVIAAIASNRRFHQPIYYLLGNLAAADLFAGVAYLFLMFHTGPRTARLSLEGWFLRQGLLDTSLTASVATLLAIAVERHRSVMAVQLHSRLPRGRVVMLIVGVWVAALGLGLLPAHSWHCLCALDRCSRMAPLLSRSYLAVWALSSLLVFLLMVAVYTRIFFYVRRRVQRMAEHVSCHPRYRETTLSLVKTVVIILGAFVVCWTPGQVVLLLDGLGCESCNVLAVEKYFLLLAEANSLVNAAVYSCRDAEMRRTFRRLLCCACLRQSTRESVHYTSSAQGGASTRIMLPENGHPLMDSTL
T1 sequence (Q9HBW0 whole entry): as above

In the case of `O=C(O)c1ccccc1SCCCN1C(=O)c2cccc3cccc(c23)C1=O` [GRI 977143], the LPAR2 specificity entry in [1] is reported as “confirmed the LPAR2 specificity”. For the same compound, in data set [2] (calculated from i.p. data), the AUC is 4260 ng·h/mL, the CL was 23.5 mL/h and the Vd was 27.3 mL. In addition, the Tmax in [2] (plasma, after i.p. administration, SJL/J mice) is listed as 10 min. In addition, the “clinical EAE scores” value in data set [3] (100 μg/mouse/d p.o. starting 3 d after immunization up to 35 d, vs vehicle) is reported as “significantly lower clinical EAE scores”. The body weight entry in data set [3] (100 μg/mouse/d p.o. starting 3 d after immunization, vs vehicle) is reported as “therapeutic efficacy was also evident”. Further, the “infiltration of the white matter of the lumbar spinal cord with myeloid cells (CD11b positive particles)” value in [3] (100 μg/mouse/d p.o., 36 days after immunization, vs vehicle) is “much reduced; also recorded: significantly reduced”. Moreover, the EC50 in data set [4] (LPAR2 agonist, COS-1 cells) was approximately 1000 nM. Besides, the EC50 in data set [5] was 1000 to 3000 nM.
As for `CCCCCCCC/C=C\CCCCCCCC(=O)OC[C@@H](O)COP(=O)(O)O` [LPA18:1, 1-oleoyl-LPA], the “specificity (response of mock transduced cells)” value in data set [6] (mock-Gα15 transduced cells as control) was “most specific”. In addition, the Emax entry in data set [7] and in data set [4] (compared with other LPAs) was “highest Emax values” each time.
For `O=C(CCN1CCN(C(=O)OCc2cc(Cl)cc(Cl)c2)CC1)c1ccc2[nH]c(=O)oc2c1` [PF8380], the LPA plasma concentration result in data set [8] is “mainly reduced unsaturated LPAs”.
Regarding `CCCCCCCCc1ccc(CCC(N)(CO)CO)cc1` [fingolimod], the autotaxin inhibition result in [9] is recorded as “slow acting autotaxin inhibitor”. Further, in data set [10], the “LPA concentrations in serum” value is “significantly lower”. Moreover, the “clinical EAE scores” value in data set [3] (fingolimod 0.5 mg/kg/day in drinking water from 3 d after immunization) is reported as “only minor effects”. Moreover, in [11], the LPA serum concentration entry is on record as “additional LPA lowering effect”.
As to `CCCCCCCCCCCCCCCCOC[C@@H](O)COP(=O)(O)O` [hexadecyl-LPA], the “LPAR activation (agonist activity)” value in [6] is on record as “no effects”.
The same measure, in the same setting: the value for `CCCCCCCCCCCCCCCCCCOC[C@@H](O)COP(=O)(O)O` [octadecyl-LPA] was “no effects”.
Take “natalizumab: alpha-4 integrin (VLA4) targeting monoclonal antibody”: in data set [10], the “LPA concentrations in serum” value was “significantly lower”. In addition, the “maximum stimulation effect of PMA/Ionomycin on ATX activity” value in data set [12] was “significantly reduced”. The “clinical EAE scores” value in [3] (3 i.p. injections at d11 (200 μg), d14, d19 (150 μg)) was “reduced the clinical scores”. Further, in [11], the LPA serum concentration result is recorded as “significantly lower LPA levels”.
